Each block holds one molecule with its values, some of them ahead of it.
Tests used:
[1] = test system: Wheat; conditions: in vivo
Source text: (§1) Monocotyledonous and dicotyledonous weed seeds as well as major crop seeds (wheat, corn, rice, soybean, peanut, cotton, oilseed rape, millet, and sorghum) were placed in plastic pots filled with soil, and then covered with 0.5-2 cm of soil. The test compounds of the present invention were individually dissolved with acetone, then added with Tween 80, diluted with a certain amount of water to obtain a solution of a certain concentration, and sprayed immediately after sowing. After drug application, cultivation was conducted for 4 weeks in a greenhouse and then the experimental results were observed.

[2] = test system: Rice; conditions: japonica, in vivo, 7 days
Method: In addition, after being loaded into the 1/1,000,000 ha pot, the rice field soil was leveled to keep the water storage at a depth of 2-3 cm. The rice (japonica rice) at 3-leaf stage was transplanted at a transplanting depth of 2-3 cm the next day. The compounds of the present invention were treated in the same manner as above on the 3rd day after the transplantation.
The effects were evaluated according to the above-mentioned activity level criteria.

[3] = test system: Direct sowing rice; conditions: in vivo, 7 days
Method: To simulate a field of direct sowing rice, a 5-cm water layer was added to the container first, fully mixed with mud to form slurry, and then rice seeds were scattered in. After the slurry became clear, the water layer was removed. The soil was kept moist and applied with drug solution evenly by spraying. The soil was rehydrated to 3-cm deep 3-4 days after drug application.
The doses of the compounds used in the above-mentioned experiments were 3.75, 7.5, 15, 30, 60, and 120 g a.i./ha. […] The effects were evaluated according to the above-mentioned activity level criteria.

[4] = test system: Peanut; conditions: in vivo, 4 weeks
Source text: as §1

[5] = test system: Corn; conditions: in vivo, 4 weeks
Source text: as §1

[6] = test system: Cotton; conditions: in vivo, 4 weeks
Source text: as §1

[7] = test system: Soybean; conditions: in vivo, 4 weeks
Source text: as §1

[8] = test system: Digitaria ischaemum; experiment: Activity test of compositions, soil sealing treatment (S); assay type: in vivo; conditions: A alone 60 g a.i./ha, fresh weight inhibition rate 21 days after treatment
Source text: (§2) The required active ingredient B was purchased from a reagent company or synthesized by a known method. The technical materials were all dissolved with acetone solvents and diluted with an aqueous solution of 0.1% Tween 80 emulsifier, which were to be used immediately after dilution.
The test soil was quantitatively filled to 3/4 of the pot, and then watered from the bottom of the pot to completely wet the soil to saturation. The test weed seeds were accelerated to just germinate, and then evenly and quantitatively sowed on the soil surface, covered with 0.5-1 cm soil according to the sizes of the seeds, and ready for use 72 hours after sowing.
(§3) Each treatment was repeated 4 times. Four pots with 20 weed seeds sowed per pot were treated each time.
(§4) The well-sowed test materials were evenly placed on a platform with an area of 0.5 m^2, and foliage spraying was carried out by the 3WP-2000-type walking spray tower at a dosage of 450 kg/ha and a spray pressure of 0.3 MPa. After all the solution was sprayed, the air valve was closed, and 30 seconds later, the door of the spray tower was opened, and the nutritional bowl was taken out. Then the air valve was opened, and the spray tube was cleaned by spraying 50 ml of water.
(§5) A method for investigating absolute numbers was employed. Whole seedlings of survival weeds were cut off with a blade along the soil surface, and the fresh weight of the weeds was weighed using an analytical balance. For dead weeds, the fresh weight thereof was zero.
(§6) The investigation was performed 21 days after the treatment for once in total.
(§7) The theoretical fresh weight inhibition rate of a mixed combination of each treatment was calculated by the Gowing method (E0=X+Y−X*Y/100). […] An optimal ratio was determined according to the actual control effects, characteristics of herbicides, and balance of the formulation. In the formula, X represents the fresh weight inhibition rate of the active ingredient A in a dosage of P; Y represents the fresh weight inhibition rate of the active ingredient B in a dosage of Q. The statistical results are shown in Table 4.

[9] = test system: Beckmannia syzigachne; experiment: Pre-emergence test experiment; assay type: in vivo; conditions: activity level, sprayed after sowing, 4 weeks
Source text: as §1

[10] = test system: Setaria viridis; experiment: Pre-emergence test experiment; assay type: in vivo; conditions: activity level, sprayed after sowing, 4 weeks
Source text: as §1

[11] = test system: Echinochloa glabrescens; experiment: Activity test of compositions, soil sealing treatment (S); assay type: in vivo; conditions: A alone 30 g a.i./ha, fresh weight inhibition rate 21 days after treatment
Method: as §2
(§8) Weeds were cultivated in a controllable sunlight greenhouse at 20 to 30° C., in natural light, and with relative humidity of 57% to 72%. […] The test soil was quantitatively filled to 3/4 of the pot, and then watered from the bottom of the pot to completely wet the soil to saturation. The test weed seeds were accelerated to just germinate, and then evenly and quantitatively sowed on the soil surface, covered with 0.5-1 cm soil according to the sizes of the seeds, and ready for use 72 hours after sowing.
as §3, §4, §5, §6, §7

[12] = test system: Oxybasis glauca; experiment: as above; assay type: in vivo; conditions: A alone 60 g a.i./ha, fresh weight inhibition rate 21 days after treatment
Method: as §2, §8, §3, §4, §5, §6, §7

[13] = test system: Arivela viscosa; experiment: as above; assay type: in vivo; conditions: A alone 60 g a.i./ha, fresh weight inhibition rate 21 days after treatment
Method: as §2, §8, §3, §4, §5, §6, §7

[14] = test system: Cyperus glomeratus; experiment: as above; assay type: in vivo; conditions: A alone 30 g a.i./ha, fresh weight inhibition rate 21 days after treatment
Method: as §2, §8, §3, §4, §5, §6, §7

[15] = test system: Echinochloa glabrescens; experiment: Activity test of compositions, early post-emergence foliage spray (F-EP); assay type: in vivo; conditions: A alone 30 g a.i./ha, fresh weight inhibition rate 21 days after treatment
Method: as §2
(§9) Weeds were cultivated by a pot culture method. […] Weed seeds with plump and uniform grains were selected, soaked in lukewarm water at 25° C. for 6 hours, and accelerated to germinate in a 28° C. biochemical incubator (in darkness). The weed seeds that had just germinated were evenly placed on the surface of the soil and then covered with 0.5-1 cm soil according to the sizes of seeds.
(§10) The culture was carried out in a controllable sunlight greenhouse at 20 to 30° C., in natural light, and with relative humidity of 57% to 72%.
as §3
(§11) The agents were used once in total in the experiment. In the stage of 1-2 leaves, the weeds were thinned out to maintain 10 strains per treatment for later use.
as §4, with “well-cultured” for “well-sowed”, “water. The test materials were transferred to and routinely cultured in a greenhouse after the treatment.” for “water.”
as §5, §6, §7

[16] = test system: Echinochloa crus-galli var. austrojaponensis; experiment: as above; assay type: in vivo; conditions: fresh weight inhibition rate 21 days after treatment
Method: as §2, §9, §10, §3, §11
as §4, with “well-cultured” for “well-sowed”, “water. The test materials were transferred to and routinely cultured in a greenhouse after the treatment.” for “water.”
as §5, §6, §7

[17] = test system: Soliva anthemifolia; experiment: as above; assay type: in vivo; conditions: A alone 60 g a.i./ha, fresh weight inhibition rate 21 days after treatment
Method: as §2, §9, §10, §3, §11
as §4, with “well-cultured” for “well-sowed”, “water. The test materials were transferred to and routinely cultured in a greenhouse after the treatment.” for “water.”
as §5, §6, §7

[18] = test system: Cyperus glomeratus; experiment: as above; assay type: in vivo; conditions: A alone 30 g a.i./ha, fresh weight inhibition rate 21 days after treatment
Method: as §2, §9, §10, §3, §11
as §4, with “well-cultured” for “well-sowed”, “water. The test materials were transferred to and routinely cultured in a greenhouse after the treatment.” for “water.”
as §5, §6, §7

[19] = test system: Echinochloa crusgalli; experiment: Weed control effect evaluation in rice fields; assay type: in vivo; conditions: activity level, 0.5-leaf stage, flooded pot, 14th day, weed resistant to pyrazosulfuron
Source text: (§12) After rice field soil was loaded into a 1/1,000,000 ha pot, the seeds of Echinochloa crusgalli, Echinochloa phyllopogon, Monochoria vaginalis, Leptochloa chinensis, and Ludwigia prostrata were sowed and gently covered with soil, then left to stand in a greenhouse with water storage of 0.5-1 cm deep. The tuber of Sagittaria trifolia was planted in the next day or 2 days later. The water storage was kept at a depth of 3-4 cm thereafter. When the Echinochloa crusgalli, Echinochloa phyllopogon, and Leptochloa chinensis reached their 0.5-leaf stages and the Sagittaria trifolia reached the time point of the primary leaf stage, WP or SC aqueous dilutions of the compounds of the present invention formulated according to common formulation methods were homogeneously dripped to the specified effective amount using pipettes for treatment.

[20] = test system: Echinochloa phyllopogon; experiment: Weed control effect evaluation in rice fields; assay type: in vivo; conditions: activity level, 0.5-leaf stage, flooded pot, 14th day, weed resistant to pyrazosulfuron
Source text: as §12

[21] = test system: Lolium perenne; experiment: Pre-emergence test experiment; assay type: in vivo; conditions: activity level (fresh weight growth control rate), sprayed after sowing, 4 weeks
Source text: as §1

Rice 60 g a.i./ha [2]: 9 | Direct sowing rice 60 g a.i./ha [3]: 9
Compound: CC(C)C12CCC(C)(O1)C(OCc1c(F)cccc1Cl)C2 (centres unmarked) [Control compound C]
phytotoxicity to wheat [1]: unacceptable phytotoxicity

Peanut 60 g a.i./ha [4]: 0 | Corn 60 g a.i./ha [5]: 0 | Cotton 60 g a.i./ha [6]: 0 | Soybean 60 g a.i./ha [7]: 0 | Rice 30 g a.i./ha [2]: 0
Compound: CC(C)C12CCC(C)(O1)C(OCc1c(F)cccc1Br)C2 (racemic) [Compound 1]
Control effect of A applied alone in a corresponding dose (%) [8]: 56.4% | Beckmannia syzigachne 60 g a.i./ha [9]: 9 | Setaria viridis 30 g a.i./ha [10]: 9 | Control effect of A applied alone in a corresponding dose (%) [11]: 58.3% | Control effect of A applied alone in a corresponding dose (%) [12]: 19.8% | Control effect of A applied alone in a corresponding dose (%) [13]: 18.5% | Control effect of A applied alone in a corresponding dose (%) [14]: 56.1% | Control effect of A applied alone in a corresponding dose (%) [15]: 48.7% | Control effect of A applied alone in a corresponding dose (%) ([16]; A alone 30 g a.i./ha): 38.4% | Control effect of A applied alone in a corresponding dose (%) ([16]; A alone 60 g a.i./ha): 52.7% | Control effect of A applied alone in a corresponding dose (%) [17]: 22.8% | Control effect of A applied alone in a corresponding dose (%) [18]: 51.5% | Echinochloa crusgalli 7.5 g a.i./ha [19]: 9 | Echinochloa phyllopogon 7.5 g a.i./ha [20]: 9

Compound: CC(C)C12CCC(C)(O1)C(OCc1ccccc1Br)C2 (centres unmarked) [Control compound A]
Lolium perenne 30 g a.i./ha [21]: 1 (Level 1: growth control rate is less than 10%)

Source: patent US20260191194A1, “OXABICYCLOALKANE COMPOUNDS, PREPARATION METHOD THEREFOR, AND HERBICIDAL COMPOSITION AND USE THEREOF” (QINGDAO KINGAGROOT CHEMICAL COMPOUND CO., LTD., priority 2022, published 2026)
